Where two headings read alike, the source gives them in different places.
What was measured:
Type in all cases: in vivo
[1] = system: pigweed (Amaranthus retroflexus); test: Test A greenhouse herbicide test, pre- and postemergence; conditions: Amaranthus retroflexus, 240 h; for pest or weed control at 125 g/ha: 125 g ai/ha; for pest or weed control at 500 g/ha: 500 g ai/ha, 0 to 100 scale
How it was run: (§1)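 Seeds sown in loam–sand blend got a preemergence directed soil spray of compound in non-phytotoxic solvent with surfactant. Postemergence treatment was given at 2–10 cm, one- to two-leaf stage. After ~10 d in greenhouse, injury was rated visually vs untreated controls, 0 (no effect) to 100 (complete control).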

[2] = system: wheat (Triticum aestivum); test: as above; conditions: Triticum aestivum, post-emergence, 240 h, Postemergence
How it was run: as §1

[3] = system: ryegrass, Italian (Italian ryegrass, Lolium multiflorum); test: as above; conditions: Lolium multiflorum, 240 h; for pest or weed control at 125 g/ha: 125 g ai/ha; for pest or weed control at 500 g/ha: 500 g ai/ha, 0 to 100 scale
How it was run: as §1

[4] = system: foxtail, giant (giant foxtail, Setaria faberii); test: as above; conditions: Setaria faberi, 240 h; for pest or weed control at 125 g/ha: 125 g ai/ha; for pest or weed control at 500 g/ha: 500 g ai/ha, 0 to 100 scale
How it was run: as §1

[5] = system: barnyardgrass (Echinochloa crus-galli); test: as above; conditions: Echinochloa crus-galli, 240 h; for pest or weed control at 125 g/ha: 125 g ai/ha; for pest or weed control at 500 g/ha: 500 g ai/ha, 0 to 100 scale
How it was run: as §1

corn (Zea mays) = test: as above; conditions: Zea mays, post-emergence, 240 h, Postemergence
How it was run: as §1

[6] = system: ragweed (common ragweed, Ambrosia elatior); test: as above; conditions: Ambrosia artemisiifolia, 240 h; for pest or weed control at 125 g/ha: 125 g ai/ha; for pest or weed control at 500 g/ha: 500 g ai/ha, 0 to 100 scale
How it was run: as §1

kochia (Kochia scoparia) = test: as above; conditions: Bassia scoparia, 240 h; for pest or weed control at 125 g/ha: 125 g ai/ha; for pest or weed control at 500 g/ha: 500 g ai/ha, 0 to 100 scale
How it was run: as §1

[7] = system: blackgrass (Alopecurus myosuroides); test: Test A greenhouse herbicide test, postemergence; conditions: Alopecurus myosuroides, post-emergence, 240 h
How it was run: (§2)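 Greenhouse postemergence test: formulated chemicals sprayed on one- to two-leaf plants (2 to 10 cm), grown in loam soil blended with sand. Injury assessed visually about 10 d later against untreated controls, scored 0 (no effect) to 100 (complete control).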

[8] = system: galium (catchweed bedstraw, Galium aparine); test: Test A greenhouse herbicide test, postemergence; conditions: Galium, post-emergence, 240 h
How it was run: as §2

[9] = system: barnyardgrass (Echinochloa crus-galli); test: Test C greenhouse herbicide test, pre- and postemergence
Description: Seeds of plant species selected from blackgrass (Alopecurus myosuroides), ryegrass, Italian (Italian ryegrass, Lolium multiflorum), wheat (winter wheat, Triticum aestivum), galium (catchweed bedstraw, Galium aparine), corn (Zea mays), large crabgrass, large (large crabgrass, Digitaria sanguinalis), foxtail, giant (giant foxtail, Setaria faberii), johnsongrass (Sorghum halepense), lambsquarters (Chenopodium album), morningglory (Ipomoea coccinea), nutsedge, yellow (yellow nutsedge, Cyperus esculentus), pigweed (Amaranthus retroflexus), ragweed (common ragweed, Ambrosia elatior), soybean (Glycine max), barnyardgrass (Echinochloa crus-galli), oilseed rape (Brassica napus), waterhemp (common waterhemp, Amaranthus rudis), and velvetleaf (Abutilon theophrasti) were planted into a blend of loam soil and sand and treated preemergence with test chemicals formulated in a non-phytotoxic solvent mixture which included a surfactant.
At the same time, plants selected from these crop and weed species and also chickweed (common chickweed, Stellaria media), kochia (Kochia scoparia), and oat, wild (wild oat, Avena fatua), were planted in pots containing Redi-Earth® planting medium (Scotts Company, 14111 Scottslawn Road, Marysville, Ohio 43041) comprising spaghnum peat moss, vermiculite, wetting agent and starter nutrients and treated with postemergence applications of test chemicals formulated in the same manner. Plants ranged in height from 2 to 18 cm (1- to 4-leaf stage) for postemergence treatments. Treated plants and controls were maintained in a greenhouse for 13 to 15 d, after which time all species were compared to controls and visually evaluated. Plant response ratings, summarized in Table C, are based on a scale of 0 to 100 where 0 is no effect and 100 is complete control. A dash (-) response means no test result.

SMILES: CC(=O)Oc1c(C)nn(C)c(=O)c1-c1c(C)oc2c(C)cc(C)cc12 [Compound 16, 5-(acetyloxy)-2,6-dimethyl-4-(2,5,7-trimethyl-3-benzofuranyl)-3(2H)-pyridazinone]
- pest or weed control at 125 g/ha ([1]; post-emergence, Postemergence, visual rating after approx. 10 d, 0 to 100 scale (0 no effect, 100 complete control), read-out: Plant response rating, Pigweed): 30%
- pest or weed control at 500 g/ha ([1]; post-emergence, Postemergence, 0 is no effect, 100 is complete control, read-out: Pigweed plant response rating): 40%
- pest or weed control at 125 g/ha ([1]; pre-emergence, Preemergence, 0 to 100 scale where 0 is no effect and 100 is complete control, read-out: Pigweed plant response rating): 0%
- pest or weed control at 500 g/ha ([1]; pre-emergence, Preemergence, 0 no effect, 100 complete control, read-out: Plant response rating, Pigweed): 70%
- plant injury at 125 g/ha ([2]; 125 g ai/ha, visual rating after approx. 10 d, 0 to 100 scale (0 no effect, 100 complete control), read-out: Plant response rating, Wheat): 0%
- plant injury at 500 g/ha ([2]; 500 g ai/ha, 0 to 100 scale, 0 is no effect, 100 is complete control, read-out: Wheat plant response rating): 0%
- pest or weed control at 125 g/ha ([3]; post-emergence, Postemergence, visual rating after approx. 10 d, 0 to 100 scale (0 no effect, 100 complete control), read-out: Plant response rating, Ryegrass, Italian): 50%
- pest or weed control at 500 g/ha ([3]; post-emergence, Postemergence, 0 is no effect, 100 is complete control, read-out: Ryegrass, Italian plant response rating): 80%
- pest or weed control at 125 g/ha ([3]; pre-emergence, Preemergence, 0 to 100 scale where 0 is no effect and 100 is complete control, read-out: Ryegrass, Italian plant response rating): 30%
- pest or weed control at 500 g/ha ([3]; pre-emergence, Preemergence, 0 no effect, 100 complete control, read-out: Plant response rating, Ryegrass, Italian): 80%
- pest or weed control at 125 g/ha ([4]; post-emergence, Postemergence, visual rating after approx. 10 d, 0 to 100 scale (0 no effect, 100 complete control), read-out: Plant response rating, Foxtail, Giant): 20%
- pest or weed control at 500 g/ha ([4]; post-emergence, Postemergence, 0 is no effect, 100 is complete control, read-out: Foxtail, Giant plant response rating): 80%
- pest or weed control at 125 g/ha ([4]; pre-emergence, Preemergence, 0 to 100 scale where 0 is no effect and 100 is complete control, read-out: Foxtail, Giant plant response rating): 0%
- pest or weed control at 500 g/ha ([4]; pre-emergence, Preemergence, 0 no effect, 100 complete control, read-out: Plant response rating, Foxtail, Giant): 30%
- pest or weed control at 125 g/ha ([5]; post-emergence, Postemergence, visual rating after approx. 10 d, 0 to 100 scale (0 no effect, 100 complete control), read-out: Plant response rating, Barnyardgrass): 20%
- pest or weed control at 500 g/ha ([5]; post-emergence, Postemergence, 0 is no effect, 100 is complete control, read-out: Barnyardgrass plant response rating): 90%
- pest or weed control at 125 g/ha ([5]; pre-emergence, Preemergence, 0 to 100 scale where 0 is no effect and 100 is complete control, read-out: Barnyardgrass plant response rating): 10%
- pest or weed control at 500 g/ha ([5]; pre-emergence, Preemergence, 0 no effect, 100 complete control, read-out: Plant response rating, Barnyardgrass): 70%
- Corn plant response rating (crop injury, 0 = no effect, 100 = complete kill) at 125 g/ha (corn (Zea mays); 125 g ai/ha, visual rating after approx. 10 d, 0 to 100 scale (0 no effect, 100 complete control)): 0%
- plant injury at 500 g/ha (corn (Zea mays); 500 g ai/ha, 0 to 100 scale, 0 is no effect, 100 is complete control, read-out: Corn plant response rating): 0%
- pest or weed control at 125 g/ha ([6]; post-emergence, Postemergence, visual rating after approx. 10 d, 0 to 100 scale (0 no effect, 100 complete control), read-out: Plant response rating, Ragweed): 30%
- pest or weed control at 500 g/ha ([6]; post-emergence, Postemergence, 0 is no effect, 100 is complete control, read-out: Ragweed plant response rating): 70%
- pest or weed control at 125 g/ha ([6]; pre-emergence, Preemergence, 0 to 100 scale where 0 is no effect and 100 is complete control, read-out: Ragweed plant response rating): 0%
- pest or weed control at 500 g/ha ([6]; pre-emergence, Preemergence, 0 no effect, 100 complete control, read-out: Plant response rating, Ragweed): 0%
- pest or weed control at 125 g/ha (kochia (Kochia scoparia); post-emergence, Postemergence, visual rating after approx. 10 d, 0 to 100 scale (0 no effect, 100 complete control), read-out: Plant response rating, Kochia): 50%
- pest or weed control at 500 g/ha (kochia (Kochia scoparia); post-emergence, Postemergence, 0 is no effect, 100 is complete control, read-out: Kochia plant response rating): 60%
- pest or weed control at 125 g/ha (kochia (Kochia scoparia); pre-emergence, Preemergence, 0 to 100 scale where 0 is no effect and 100 is complete control, read-out: Kochia plant response rating): 0%
- pest or weed control at 500 g/ha (kochia (Kochia scoparia); pre-emergence, Preemergence, 0 no effect, 100 complete control, read-out: Plant response rating, Kochia): 30%
- pest or weed control at 125 g/ha ([7]; 125 g ai/ha, visual rating after approx. 10 d, 0 to 100 scale (0 no effect, 100 complete control), read-out: Plant response rating, Blackgrass): 10%
- pest or weed control at 500 g/ha ([7]; 500 g ai/ha, 0 to 100 scale, 0 is no effect, 100 is complete control, read-out: Blackgrass plant response rating): 30%
- pest or weed control at 125 g/ha ([8]; 125 g ai/ha, visual rating after approx. 10 d, 0 to 100 scale (0 no effect, 100 complete control), read-out: Plant response rating, Galium): 90%
- pest or weed control at 500 g/ha ([8]; 500 g ai/ha, 0 to 100 scale, 0 is no effect, 100 is complete control, read-out: Galium plant response rating): 100%
- Barnyardgrass plant response rating ([9]; Postemergence, 31 g ai/ha, 0 to 100 scale (0 no effect, 100 complete control)): 5
- Plant response rating, Barnyardgrass ([9]; Postemergence, 125 g ai/ha, scale 0 to 100, 0 is no effect, 100 is complete control): 70
- Plant response rating, Barnyardgrass ([9]; Postemergence, 250 g ai/ha, scale 0 to 100, 0 no effect, 100 complete control, 13 to 15 d): 90
- Barnyardgrass plant response rating ([9]; postemergence, 62 g ai/ha, scale 0 to 100, 0 no effect, 100 complete control): 70

From patent US10597388B2, “Pyridazinone herbicides” (FMC CORPORATION, priority 2014, dated 2020)
